Measured values as given in ChEMBL document CHEMBL5346915, “A practical "preTACs-cytoblot" platform accelerates the streamlined development of PROTAC-based protein degraders” (Eur J Med Chem, 2023).
Calls of active or inactive are those of the source. No cut-off for these calls is given here.

Experiments:
[1] = target: Protein cereblon/Cyclin-dependent kinase 12 (Homo sapiens) (UniProt Q9NYV4+Q96SW2); assay: PROTAC activity at CRBN/CDK12 in human HeLa cells assessed as induction of CDK12 degradation measured after 24 hrs by fluorescence based cytoblot assay; format: cell-based
Chain of Protein cereblon/Cyclin-dependent kinase 12 (Homo sapiens) (Q96SW2 whole entry, looked up): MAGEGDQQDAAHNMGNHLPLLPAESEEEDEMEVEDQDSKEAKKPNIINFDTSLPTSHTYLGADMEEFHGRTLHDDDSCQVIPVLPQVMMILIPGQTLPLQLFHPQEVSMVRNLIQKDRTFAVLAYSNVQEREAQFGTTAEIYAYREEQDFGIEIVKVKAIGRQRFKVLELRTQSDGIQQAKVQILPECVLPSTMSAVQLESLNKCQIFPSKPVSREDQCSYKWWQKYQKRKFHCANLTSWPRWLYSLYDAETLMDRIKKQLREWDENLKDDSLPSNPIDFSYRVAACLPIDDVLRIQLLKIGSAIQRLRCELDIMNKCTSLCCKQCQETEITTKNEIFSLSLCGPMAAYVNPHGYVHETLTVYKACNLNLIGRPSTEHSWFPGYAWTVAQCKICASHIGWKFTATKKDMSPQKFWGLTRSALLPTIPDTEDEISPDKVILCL
Chain of Protein cereblon/Cyclin-dependent kinase 12 (Homo sapiens) (Q9NYV4 whole entry, looked up): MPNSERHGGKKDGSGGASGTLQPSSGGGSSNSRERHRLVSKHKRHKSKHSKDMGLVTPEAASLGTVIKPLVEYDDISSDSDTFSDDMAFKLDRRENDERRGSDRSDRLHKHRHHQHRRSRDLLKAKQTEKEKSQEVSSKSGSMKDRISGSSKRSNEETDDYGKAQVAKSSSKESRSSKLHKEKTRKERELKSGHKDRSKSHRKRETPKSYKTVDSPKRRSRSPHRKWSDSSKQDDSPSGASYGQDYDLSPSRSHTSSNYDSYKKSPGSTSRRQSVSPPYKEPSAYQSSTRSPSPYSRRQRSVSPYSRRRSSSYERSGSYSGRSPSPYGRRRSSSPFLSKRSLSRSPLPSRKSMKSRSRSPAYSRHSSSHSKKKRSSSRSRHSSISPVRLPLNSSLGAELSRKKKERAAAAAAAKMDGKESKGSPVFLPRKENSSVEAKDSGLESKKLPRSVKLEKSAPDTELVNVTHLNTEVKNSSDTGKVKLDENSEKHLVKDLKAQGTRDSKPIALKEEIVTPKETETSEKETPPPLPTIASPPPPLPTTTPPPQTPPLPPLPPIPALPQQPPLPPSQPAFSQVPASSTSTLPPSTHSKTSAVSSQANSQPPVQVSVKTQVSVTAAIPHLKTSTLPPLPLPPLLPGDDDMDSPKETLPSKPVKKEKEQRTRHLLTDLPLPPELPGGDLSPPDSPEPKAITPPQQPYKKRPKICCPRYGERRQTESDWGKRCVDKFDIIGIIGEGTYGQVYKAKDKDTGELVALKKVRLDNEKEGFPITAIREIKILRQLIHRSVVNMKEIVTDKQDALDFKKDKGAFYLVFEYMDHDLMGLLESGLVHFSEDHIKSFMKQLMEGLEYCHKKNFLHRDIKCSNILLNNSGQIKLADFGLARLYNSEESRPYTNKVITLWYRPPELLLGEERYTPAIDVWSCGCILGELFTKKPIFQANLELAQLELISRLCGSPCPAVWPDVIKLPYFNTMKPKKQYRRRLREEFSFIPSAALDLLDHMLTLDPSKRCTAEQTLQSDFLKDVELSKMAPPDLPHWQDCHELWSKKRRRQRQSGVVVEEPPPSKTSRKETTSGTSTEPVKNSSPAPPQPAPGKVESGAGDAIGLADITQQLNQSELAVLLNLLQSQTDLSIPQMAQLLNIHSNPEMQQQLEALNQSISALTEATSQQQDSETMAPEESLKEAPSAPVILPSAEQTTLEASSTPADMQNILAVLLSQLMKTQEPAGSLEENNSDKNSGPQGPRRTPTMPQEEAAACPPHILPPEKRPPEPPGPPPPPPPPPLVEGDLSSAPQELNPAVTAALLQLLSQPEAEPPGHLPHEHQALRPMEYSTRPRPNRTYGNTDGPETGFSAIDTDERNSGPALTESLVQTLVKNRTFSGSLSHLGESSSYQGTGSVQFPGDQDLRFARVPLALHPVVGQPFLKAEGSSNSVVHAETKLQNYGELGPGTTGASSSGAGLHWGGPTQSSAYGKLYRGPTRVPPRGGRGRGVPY

[2] = target: T1, von Hippel-Lindau disease tumor suppressor/Cyclin-dependent kinase 12 (Homo sapiens, UniProt P40337+Q9NYV4); assay: PROTAC activity at VHL/CDK12 in human HeLa cells assessed as induction of CDK12 degradation measured after 24 hrs by fluorescence based cytoblot assay; format: cell-based
T1 sequence (P40337 whole entry): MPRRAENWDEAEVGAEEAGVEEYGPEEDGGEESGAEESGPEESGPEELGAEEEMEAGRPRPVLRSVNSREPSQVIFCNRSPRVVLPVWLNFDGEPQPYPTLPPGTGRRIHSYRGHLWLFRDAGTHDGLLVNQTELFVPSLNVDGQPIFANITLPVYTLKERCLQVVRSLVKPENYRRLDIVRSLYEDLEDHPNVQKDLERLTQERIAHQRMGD
T1 sequence (Q9NYV4 whole entry): as the sequence (Q9NYV4 whole entry, looked up) above

[3] = target: T1, von Hippel-Lindau disease tumor suppressor/Cyclin-dependent kinase 12; assay: PROTAC activity at VHL/CDK12 in human HeLa cells assessed as induction of CDK12 degradation measured after 24 hrs by Western blotting analysis; format: cell-based
HeLa = assay: Antiproliferative activity against human HeLa cells assessed as inhibition of cell growth measured after 96 hrs by SRB assay; format: functional, cell-based
MDA-MB-231 [4] = assay: Antiproliferative activity against human MDA-MB-231 cells assessed as inhibition of cell growth measured after 96 hrs by SRB assay; format: functional, cell-based; settings: MDA-MB-231, 96 h
Bel-7402 = assay: Antiproliferative activity against human Bel-7402 cells assessed as inhibition of cell growth measured after 96 hrs by SRB assay; format: functional, cell-based; settings: Bel-7402, 96 h
HCT-116 = assay: Antiproliferative activity against human HCT-116 cells assessed as inhibition of cell growth measured after 96 hrs by SRB assay; format: functional, cell-based; settings: HCT-116, 96 h
[5] = Cytotoxicity against human L02 cells assessed as inhibition of cell growth measured after 96 hrs by SRB assay; format: toxicity, cell-based
MDA-MB-231 [6] = assay: Synergistic antiproliferative activity against human MDA-MB-231 cells assessed as combination index at 500 nM incubated for 14 days in presence of olaparib by sulforhodamine B staining based Chou-Talalay method; format: functional; settings: time 14 day

For `CC(C)S(=O)(=O)c1ccccc1Nc1nc(N[C@@H]2CCCN(CCCCc3cn(CCCCCCCOc4cccc5c4C(=O)N(C4CCC(=O)NC4=O)C5=O)nn3)C2)ncc1Cl` (some centres not stated), the Activity [1] was “Active”.

In the case of `Cc1ncsc1-c1ccc([C@H](C)NC(=O)[C@@H]2C[C@@H](O)CN2C(=O)[C@@H](NC(=O)CCCCCCNC(=O)CN2CCC[C@@H](Nc3ncc(Cl)c(Nc4ccccc4S(=O)(=O)C(C)C)n3)C2)C(C)(C)C)cc1`, the DC50 [2] is reported as 74 nM, the DC50 [3] is reported as 85 nM and the IC50 (HeLa) is reported as 316 nM. The IC50 (MDA-MB-231 [4]) was 468 nM, the IC50 (Bel-7402) was 491 nM and the IC50 (HCT-116) was 665 nM. For the same molecule, the IC50 at 96 h [5] was greater than 1000 nM and the CI (MDA-MB-231 [6]) was 0.17.

In the case of `CC(C)S(=O)(=O)c1ccccc1Nc1nc(N[C@@H]2CCCN(CCCCc3cn(CCCCCCCOc4ccc5c(c4)C(=O)N(C4CCC(=O)NC4=O)C5=O)nn3)C2)ncc1Cl` (some centres not stated), the Activity [1] is reported as “Active”.

`CN(C)C/C=C/C(=O)Nc1ccc(C(=O)N2CCC[C@@H](Nc3ncc(Cl)c(-c4c[nH]c5ccccc45)n3)C2)cc1` showed an IC50 (HeLa) of 106 nM, an IC50 (MDA-MB-231 [4]) of 133 nM and an IC50 (Bel-7402) of 650 nM. For the same molecule, the IC50 (HCT-116) was 89 nM and the IC50 at 96 h [5] was 119 nM.

With `CC(C)S(=O)(=O)c1ccccc1Nc1nc(N[C@@H]2CCCN(CCCCCCCNC(=O)COc3cccc4c3C(=O)N(C3CCC(=O)NC3=O)C4=O)C2)ncc1Cl` (some centres not stated) the DC50 [2] was 57 nM and the DC50 [3] was 83 nM.
